# Experimental data from US20170280722A1, “COMPOSITIONS AND METHODS FOR CONTROL OF SAND FLIES AND OTHER BLOOD SUCKING INSECTS” (GENESIS LABORATORIES, INC., priority 2010, published 2017).
# Values joined by “and” are separate entries in the source; they are usually repeats but may differ in a detail not shown here. Identical values can stand only once.
# Tests used:
# Assay type in all cases: in vivo
# [1] = tested on: larval P. argentipes sand flies; experiment: Larval bioassay with feces of cattle given a single oral dose of fipronil; details: for Days after dosing to attain 100% mortality in sand flies: cattle
# Protocol: (§1) The test substance was given to the cattle orally as a single application. The oral treatment was by hand. Because the oral treatment was delivered in capsule form the dosage was very precise.
# (§2) The four dose levels of fipronil for the treatment groups used in this study were as follows: 0.5, 1.0, 2.0 and 4.0 mg/kg. These were weighed with an analytical balance to the nearest 0.01 g and presented in gelatin capsules.
# Collection of feces was performed at pre-dosing (day 0) and days 1, 3, 5, 7, 14, 21, and 28 following administration. Feces were sampled using arm length veterinarian sterile glove and about 50 g of feces was placed into individually label plastic jars. Samples were stored in a −20° C. freezer.
# (§3) Larval bioassay jars were prepared using 48 mm, 100 g round Dibbi jars (Pearlpet, Pearl Polymers LTD., New Delhi, India). Jars were prepared by burning three small holes into the bottom of the container with a soldering iron. A thin layer (approximately 5 mm) of plaster of Paris was cast on the bottom and wetted to ensure humidity and softening of the test diet. To simplify mortality counts, the plaster was quartered, and each quadrant numbered one through four, using an ultra fine black marker. The lids of the jars were punctured with 15-20 small holes using a heated 24-gauge hypodermic needle.
# (§4) Each bioassay jar was loaded with ten one to two day old first instar P. argentipes larvae. Approximately 5 mg treated feces were sprinkled evenly over the plaster. Larval bioassay samples were maintained in a controlled environment at approximately 24° C. with relative humidity maintained at approximately 80% through daily moistening of paper towels underneath the jars. Any observed mold or mites were removed during each day's observation. Each bioassay group included one control jar with larvae provided standard larval food consisting of rabbit feed, rabbit pellets, and dried chicken blood which were mixed, dried, composted, and crushed. Mortality counts of larvae were conducted every 24 hours post-exposure until 100% mortality or pupation was observed. Larvae were considered dead if no physical response was observed within 15 seconds of light stimulation with a blunt probe.
# [2] = tested on: P. argentipes first instar larvae; experiment: Larval bioassay with feces of fipronil treated B. bengalensis; details: for Mean ± SEM survival (days) of P. argentipes larvae during exposure to treated feces D-1 / Mean ± SEM survival (days) of P. argentipes larvae during exposure to treated feces D-5 / Mean ± SEM survival (days) of P. argentipes larvae during exposure to treated feces D-10 / Mean ± SEM survival (days) of P. argentipes larvae during exposure to treated feces D-20: B. bengalensis; for Mean ± SEM survival (days) of P. argentipes larvae during exposure to treated feces D-1: feces 1 day post-treatment; for Mean ± SEM survival (days) of P. argentipes larvae during exposure to treated feces D-5: feces 5 days post-treatment; for Mean ± SEM survival (days) of P. argentipes larvae during exposure to treated feces D-10: feces 10 days post-treatment; for Mean ± SEM survival (days) of P. argentipes larvae during exposure to treated feces D-20: feces 20 days post-treatment
# Protocol: The B. bengalensis fipronil study was conducted in two portions. In the first of the two segments, three randomly selected B. bengalensis were offered a fipronil (250 ppm) treated diet at 25 g daily. One rat served as control and was fed an untreated diet. In the second portion of the study, the remaining animals were randomly divided into two groups of two. Two individuals in the first group were offered 25 g of 100 ppm fipronil-treated feed each and two rats in the second group were each offered 25 g of 50 ppm fipronil-treated diet. One rat served as control and was fed an untreated diet.
# Test animals were provided treated feed for two consecutive days. Diets were prepared by utilizing locally available poultry feed treated with technical grade fipronil to predetermined concentrations. Consumption was calculated daily, feed refilled to a predetermined level of 25 g, and feces cleared. At the end of the second day, treated feed was cleared, final consumption weighed, and feed replaced with untreated locally available poultry feed. Feces were collected, noted as day-1 post-treatment and properly stored for use in assays. Observation of test animals continued for twenty days post-treatment, with additional collection of feces for testing conducted 5, 10, and 20 days post-treatment. On days when fecal collection occurred, all newspaper/bedding was replaced at 0800 hours and feces collected at the end of the day for preservation. Collected feces were dried overnight at approximately 40° C., ground into a fine powder with a pestle and mortar and frozen at −20° C. until larval bioassays were initiated.
# as §3, §4
# [3] = Cattle dosing, observation for adverse effects; details: 0.5, 1.0, 2.0, and 4.0 mg/kg body weight, single oral dose
# Protocol: as §1
# The observation period can be extended, if necessary based on drug persistence data and residue analysis. The first day of dose application was designated as day 0.
# as §2
# Body weights were recorded individually for all animals during randomization, at the beginning of each week (Monday) during the study period, and at the termination of the study.
smiles,measurement,setting,value
N#Cc1nn(-c2c(Cl)cc(C(F)(F)F)cc2Cl)c(N)c1[S+]([O-])C(F)(F)F (stereo not shown) [fipronil],Larval mortality,"[1]; all dose levels (0.5-4.0 mg/kg), over the 21-day study",100%
same,Day by which 100% sand fly mortality was attained,"[1]; cattle feces of day 3 post-treatment, dose level not stated",≤ 4 days
same,Days after dosing to attain 100% mortality in sand flies,"[1]; single oral dose 0.5 mg/kg, feces of day 1 after administration",5.5 days
same,Days after dosing to attain 100% mortality in sand flies,"[1]; single oral dose 0.5 mg/kg, feces of day 3 after administration",6.0 days
same,Days after dosing to attain 100% mortality in sand flies,"[1]; single oral dose 0.5 mg/kg, feces of day 5 after administration",9.5 days
same,Days after dosing to attain 100% mortality in sand flies,"[1]; single oral dose 0.5 mg/kg, feces of day 14 after administration",17 days
same,Days after dosing to attain 100% mortality in sand flies,"[1]; single oral dose 0.5 mg/kg, feces of day 21 after administration",15.5 days
same,Days after dosing to attain 100% mortality in sand flies,"[1]; single oral dose 1.0 mg/kg, feces of day 1 after administration",4.5 days
same,Days after dosing to attain 100% mortality in sand flies,"[1]; single oral dose 1.0 mg/kg, feces of day 3 after administration",4.0 days
same,Days after dosing to attain 100% mortality in sand flies,"[1]; single oral dose 1.0 mg/kg, feces of day 5 after administration",9.0 days
same,Days after dosing to attain 100% mortality in sand flies,"[1]; single oral dose 1.0 mg/kg, feces of day 14 after administration",20 days
same,Days after dosing to attain 100% mortality in sand flies,"[1]; single oral dose 1.0 mg/kg, feces of day 21 after administration",16.5 days
same,Days after dosing to attain 100% mortality in sand flies,"[1]; single oral dose 2.0 mg/kg, feces of day 1 after administration",4.0 days
same,Days after dosing to attain 100% mortality in sand flies,"[1]; single oral dose 2.0 mg/kg, feces of day 3 after administration",4.0 days
same,Days after dosing to attain 100% mortality in sand flies,"[1]; single oral dose 2.0 mg/kg, feces of day 5 after administration",7.0 days
same,Days after dosing to attain 100% mortality in sand flies,"[1]; single oral dose 2.0 mg/kg, feces of day 14 after administration",10 days
same,Days after dosing to attain 100% mortality in sand flies,"[1]; single oral dose 2.0 mg/kg, feces of day 21 after administration, 2 mg/kg",12 days and 12.0 days
same,Days after dosing to attain 100% mortality in sand flies,"[1]; single oral dose 4.0 mg/kg, feces of day 1 after administration",4.0 days
same,Days after dosing to attain 100% mortality in sand flies,"[1]; single oral dose 4.0 mg/kg, feces of day 3 after administration",4.0 days
same,Days after dosing to attain 100% mortality in sand flies,"[1]; single oral dose 4.0 mg/kg, feces of day 5 after administration",6.5 days
same,Days after dosing to attain 100% mortality in sand flies,"[1]; single oral dose 4.0 mg/kg, feces of day 14 after administration",11 days
same,Days after dosing to attain 100% mortality in sand flies,"[1]; single oral dose 4.0 mg/kg, feces of day 21 after administration, 4 mg/kg",10 days and 10.0 days
same,Mean ± SEM survival (days) of P. argentipes larvae during exposure to treated feces D-1,[2]; 50 ppm,2.66 ± 0.18 days
same,Mean ± SEM survival (days) of P. argentipes larvae during exposure to treated feces D-5,[2]; 50 ppm,4.03 ± 0.27 days
same,Mean ± SEM survival (days) of P. argentipes larvae during exposure to treated feces D-10,[2]; 50 ppm,4.06 ± 0.29 days
same,Mean ± SEM survival (days) of P. argentipes larvae during exposure to treated feces D-20,[2]; 50 ppm,6.36 ± 0.36 days
same,Mean ± SEM survival (days) of P. argentipes larvae during exposure to treated feces D-1,[2]; 100 ppm,2.23 ± 0.11 days
same,Mean ± SEM survival (days) of P. argentipes larvae during exposure to treated feces D-5,[2]; 100 ppm,3.73 ± 0.23 days
same,Mean ± SEM survival (days) of P. argentipes larvae during exposure to treated feces D-10,[2]; 100 ppm,3.70 ± 0.16 days
same,Mean ± SEM survival (days) of P. argentipes larvae during exposure to treated feces D-20,[2]; 100 ppm,3.82 ± 0.21 days
same,Mean ± SEM survival (days) of P. argentipes larvae during exposure to treated feces D-1,[2]; 250 ppm,3.37 ± 0.20 days
same,Mean ± SEM survival (days) of P. argentipes larvae during exposure to treated feces D-5,[2]; 250 ppm,5.13 ± 0.27 days
same,Mean ± SEM survival (days) of P. argentipes larvae during exposure to treated feces D-10,[2]; 250 ppm,2.28 ± 0.10 days
same,Mean ± SEM survival (days) of P. argentipes larvae during exposure to treated feces D-20,[2]; 250 ppm,2.20 ± 0.10 days
same,Days of exposure to achieve 100% mortality,"[2]; feces 5 days after treatment, 50 ppm",7 days
same,Larval mortality,"[2]; feces 5 days after treatment, 50 ppm, after 2 days of exposure",23%
same,Days of exposure to achieve 100% mortality,"[2]; feces 5 days after treatment, 100 ppm",7 days
same,Larval mortality,"[2]; feces 5 days after treatment, 100 ppm, after 2 days of exposure",22%
same,Days of exposure to achieve 100% mortality,"[2]; feces 5 days after treatment, 250 ppm",8 days
same,Larval mortality,"[2]; feces 5 days after treatment, 250 ppm, after 3 days of exposure",23%
same,Days of exposure to achieve 100% mortality,"[2]; feces 10 days after treatment, 50 ppm",9 days
same,Larval mortality,"[2]; feces 10 days after treatment, 50 ppm, after 2 days of exposure",16%
same,Larval mortality,"[2]; feces 10 days after treatment, 50 ppm, after 6 days of exposure",95%
same,Days of exposure to achieve 100% mortality,"[2]; feces 10 days after treatment, 100 ppm",5 days
same,Larval mortality,"[2]; feces 10 days after treatment, 100 ppm, after 2 days of exposure",6%
same,Days of exposure to achieve 100% mortality,"[2]; feces 10 days after treatment, 250 ppm",4 days
same,Larval mortality,"[2]; feces 10 days after treatment, 250 ppm, after 2 days of exposure",78%
same,Days of exposure to achieve 100% mortality,"[2]; feces 20 days after treatment, 50 ppm",10 days
same,Days of exposure to achieve 100% mortality,"[2]; feces 20 days after treatment, 100 ppm",6 days
same,Larval mortality,"[2]; feces 20 days after treatment, 100 ppm (so in the source), after 3 days of exposure",7%
same,Larval mortality,"[2]; feces 20 days after treatment, 100 ppm, after 2 days of exposure",14%
same,Days of exposure to achieve 100% mortality,"[2]; feces 20 days after treatment, 250 ppm",4 days
same,Larval mortality,"[2]; feces 20 days after treatment, 250 ppm, after 2 days of exposure",85%
same,Knockdown of larvae,[2]; feces collected 20 days after the rodents were treated,Quick knockdown
same,Days of exposure to achieve 100% mortality,"[2]; feces day 1 post-treatment, 50 ppm",5 days
same,Larval mortality,"[2]; feces day 1 post-treatment, 50 ppm, after 1 day of exposure",4%
same,Days of exposure to achieve 100% mortality,"[2]; feces day 1 post-treatment, 100 ppm",4 days
same,Larval mortality,"[2]; feces day 1 post-treatment, 100 ppm, after 1 day of exposure",8%
same,Days of exposure to achieve 100% mortality,"[2]; feces day 1 post-treatment, 250 ppm",6 days
same,Larval mortality,"[2]; feces day 1 post-treatment, 250 ppm, after 2 days of exposure",18%
same,Adverse effect from dosing the cattle,[3],no observed adverse effect
